By DC50 is commonly meant the concentration at which degradation of the target reaches its halfway point. High values mean degradation only at high concentration, low ones degradation at low concentration. By Dmax is commonly meant the greatest extent of degradation seen. Higher therefore signals a fuller loss of target.

The target in the assay is T1, Androgen Receptor (Homo sapiens, UniProt P10275+P40337, T878A).
T1 construct: Compounds have been evaluated in this assay in LNCaP and/or VCaP cells utilizing similar protocols; endogenous in cells; host or cells: LNCaP cells
T1 sequence (P10275 whole entry T878A): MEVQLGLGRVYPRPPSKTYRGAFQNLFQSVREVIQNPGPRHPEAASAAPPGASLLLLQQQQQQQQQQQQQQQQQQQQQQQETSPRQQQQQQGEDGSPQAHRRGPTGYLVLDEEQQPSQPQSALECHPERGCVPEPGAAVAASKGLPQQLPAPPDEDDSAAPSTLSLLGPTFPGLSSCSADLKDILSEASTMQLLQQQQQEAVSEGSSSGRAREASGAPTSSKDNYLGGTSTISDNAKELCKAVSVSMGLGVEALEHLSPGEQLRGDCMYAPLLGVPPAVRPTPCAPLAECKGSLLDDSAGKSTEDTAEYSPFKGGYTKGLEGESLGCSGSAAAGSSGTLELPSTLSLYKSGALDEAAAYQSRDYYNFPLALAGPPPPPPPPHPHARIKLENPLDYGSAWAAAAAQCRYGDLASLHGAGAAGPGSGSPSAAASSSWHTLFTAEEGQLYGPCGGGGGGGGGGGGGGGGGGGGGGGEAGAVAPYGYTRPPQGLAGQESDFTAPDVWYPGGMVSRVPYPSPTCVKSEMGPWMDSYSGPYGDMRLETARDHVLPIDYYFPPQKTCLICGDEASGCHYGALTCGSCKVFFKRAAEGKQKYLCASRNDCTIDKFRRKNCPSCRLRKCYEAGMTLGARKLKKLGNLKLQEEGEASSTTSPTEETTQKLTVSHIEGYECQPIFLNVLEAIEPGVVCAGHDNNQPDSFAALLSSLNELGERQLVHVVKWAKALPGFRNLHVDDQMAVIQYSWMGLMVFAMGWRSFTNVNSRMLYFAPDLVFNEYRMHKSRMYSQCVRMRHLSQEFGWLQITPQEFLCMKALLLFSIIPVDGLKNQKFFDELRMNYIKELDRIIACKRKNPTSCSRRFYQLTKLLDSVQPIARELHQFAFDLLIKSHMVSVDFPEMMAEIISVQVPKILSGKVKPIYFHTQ
T1 sequence (P40337 whole entry): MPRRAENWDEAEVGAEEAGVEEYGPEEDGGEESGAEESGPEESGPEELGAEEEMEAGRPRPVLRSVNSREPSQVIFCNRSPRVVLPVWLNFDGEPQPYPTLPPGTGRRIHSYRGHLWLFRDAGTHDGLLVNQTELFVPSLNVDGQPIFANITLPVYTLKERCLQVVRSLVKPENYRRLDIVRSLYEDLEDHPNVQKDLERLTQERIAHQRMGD
T1 sequence (Q15369 whole entry partner): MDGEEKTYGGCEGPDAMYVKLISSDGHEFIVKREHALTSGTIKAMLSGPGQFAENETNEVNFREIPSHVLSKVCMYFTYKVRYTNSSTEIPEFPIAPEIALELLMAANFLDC
T1 sequence (Q15370 whole entry partner): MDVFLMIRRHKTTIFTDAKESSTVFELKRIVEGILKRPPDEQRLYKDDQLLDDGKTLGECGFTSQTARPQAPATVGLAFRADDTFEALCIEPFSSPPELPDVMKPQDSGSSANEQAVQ
In words: Androgen Receptor ELISA assay (PathScan AR ELISA) in LNCaP cells: AR degradation, Dmax and DC50. Format: cell-based. The note with it: for DC50: concentration that caused 50% Androgen Receptor degradation; for Dmax: highest percentage of Androgen Receptor degradation. On the technique in general: ELISA stands for enzyme-linked immunosorbent assay.

Compound `Cc1ncsc1-c1ccc(CNC(=O)[C@@H]2C[C@@H](O)CN2C(=O)[C@@H](NC(=O)c2ccc(OCCCCOc3ccc(N4C(=S)N(c5ccc(C#N)c(C(F)(F)F)c5)C(=O)C4(C)C)cc3)cc2)C(C)(C)C)cc1` [Example 257] came in with a DC50 of 51 to 500 nM and a Dmax of 26 to 50%.

`Cc1ncsc1-c1ccc(CNC(=O)[C@@H]2C[C@@H](O)CN2C(=O)[C@@H](NC(=O)c2ccc(OCCCCCOc3ccc(N4C(=S)N(c5ccc(C#N)c(C(F)(F)F)c5)C(=O)C4(C)C)cc3)cc2)C(C)(C)C)cc1` [Example 258] registered a DC50 of 51 to 500 nM and a Dmax of 26 to 50%.

`Cc1ncsc1-c1ccc(CNC(=O)[C@@H]2C[C@@H](O)CN2C(=O)[C@@H](NC(=O)CCCCOc2ccc(CCCOc3ccc(N4C(=S)N(c5ccc(C#N)c(C(F)(F)F)c5)C(=O)C4(C)C)cc3)cc2)C(C)(C)C)cc1` [Example 259] showed a DC50 of 51 to 500 nM and a Dmax of over 71%.

Compound `Cc1ncsc1-c1ccc(CNC(=O)[C@@H]2C[C@@H](O)CN2C(=O)[C@H](C(C)C)N2Cc3ccccc3C2=O)c(OCCOc2ccc(N3C(=S)N(c4ccc(C#N)c(C(F)(F)F)c4)C(=O)C3(C)C)cc2)c1` [Example 261] yielded a 50% degradation concentration (DC50) of 51 to 500 nM and a Dmax of under 25%.

Compound `Cc1ncsc1-c1ccc(CNC(=O)[C@@H]2C[C@@H](O)CN2C(=O)[C@@H](NC(=O)COCCOCCCOCCCOc2ccc(N3C(=S)N(c4ccc(C#N)c(C(F)(F)F)c4)C(=O)C3(C)C)cc2)C(C)(C)C)cc1` [Example 262] returned a DC50 of 51 to 500 nM and a Dmax of 26 to 50%.

For the compound `Cc1ncsc1-c1ccc(CNC(=O)[C@@H]2C[C@@H](O)CN2C(=O)[C@@H](NC(=O)c2ccc(OCCOCCCCOc3ccc(N4C(=S)N(c5ccc(C#N)c(C(F)(F)F)c5)C(=O)C4(C)C)cc3)cc2)C(C)(C)C)cc1` [Example 263], the DC50 was 51 to 500 nM and the Dmax fell in the range of 26 to 50%.

`Cc1ncsc1-c1ccc(CNC(=O)[C@@H]2C[C@@H](O)CN2C(=O)[C@@H](NC(=O)c2ccc(OCCOCCOc3ccc(N4C(=S)N(c5ccc(C#N)c(C(F)(F)F)c5)C(=O)C4(C)C)cc3)cc2)C(C)(C)C)cc1` [Example 264] registered a DC50 of 51 to 500 nM and a Dmax of under 25%.

Compound `Cc1ncsc1-c1ccc(CNC(=O)[C@@H]2C[C@@H](O)CN2C(=O)[C@@H](NC(=O)c2ccc(OCCCOc3ccc(N4C(=S)N(c5ccc(C#N)c(C(F)(F)F)c5)C(=O)C4(C)C)cc3)cc2)C(C)(C)C)cc1` [Example 265] showed a DC50 of 51 to 500 nM and a Dmax of under 25%.

The compound `CC(=O)N[C@H](C(=O)N1C[C@H](O)C[C@H]1C(=O)NCc1ccc(-c2scnc2C)cc1OCCOCCOCCOc1ccc(N2C(=S)N(c3ccc(C#N)c(C(F)(F)F)c3)C(=O)C2(C)C)cc1)C(C)(C)C` [Example 266] showed a DC50 of 51 to 500 nM and a Dmax of 51 to 70%.

Compound `CCC(=O)N[C@H](C(=O)N1C[C@H](O)C[C@H]1C(=O)NCc1ccc(-c2scnc2C)cc1OCCOCCOCCOc1ccc(N2C(=S)N(c3ccc(C#N)c(C(F)(F)F)c3)C(=O)C2(C)C)cc1)C(C)(C)C` [Example 267] showed a DC50 of 51 to 500 nM and a Dmax of 51 to 70%.

`CCC(=O)N[C@H](C(=O)N1C[C@H](O)C[C@H]1C(=O)NCc1ccc(-c2scnc2C)cc1OCCOCCOCCOc1ccc(N2C(=O)N(c3ccc(C#N)c(C(F)(F)F)c3)C(=O)C2(C)C)cc1)C(C)(C)C` [Example 268] yielded a half-maximal degradation concentration (DC50) of over 501 nM and a Dmax of 51 to 70%.

`Cc1ncsc1-c1ccc(CNC(=O)[C@@H]2C[C@@H](O)CN2C(=O)[C@@H](NC(=O)C(C)C)C(C)(C)C)c(OCCOCCOCCOc2ccc(N3C(=S)N(c4ccc(C#N)c(C(F)(F)F)c4)C(=O)C3(C)C)cc2)c1` [Example 269]: the DC50 is over 501 nM and the greatest degradation seen (Dmax) is 51 to 70%.

The compound `Cc1ncsc1-c1ccc(CNC(=O)[C@@H]2C[C@@H](O)CN2C(=O)[C@@H](NC(=O)C(C)(C)C)C(C)(C)C)c(OCCOCCOCCOc2ccc(N3C(=S)N(c4ccc(C#N)c(C(F)(F)F)c4)C(=O)C3(C)C)cc2)c1` [Example 270] gave a DC50 of 51 to 500 nM and a Dmax of 51 to 70%.

`CC(=O)NCC(=O)N1C[C@H](O)C[C@H]1C(=O)NCc1ccc(-c2scnc2C)cc1OCCOCCOCCOc1ccc(N2C(=S)N(c3ccc(C#N)c(C(F)(F)F)c3)C(=O)C2(C)C)cc1` [Example 271] came in with a DC50 of over 501 nM and a Dmax of 26 to 50%.

On to `CC(=O)N[C@@H](C)C(=O)N1C[C@H](O)C[C@H]1C(=O)NCc1ccc(-c2scnc2C)cc1OCCOCCOCCOc1ccc(N2C(=S)N(c3ccc(C#N)c(C(F)(F)F)c3)C(=O)C2(C)C)cc1` [Example 272], for which the DC50 was over 501 nM and the maximal degradation (Dmax) is under 25%.

Compound `Cc1ncsc1-c1ccc(CNC(=O)[C@@H]2C[C@@H](O)CN2C(=O)[C@H](C(C)C)N2Cc3cc(CCCCOCCCOc4ccc(N5C(=S)N(c6ccc(C#N)c(C(F)(F)F)c6)C(=O)C5(C)C)cc4)ccc3C2=O)cc1` [Example 273] gave a DC50 of over 501 nM and a Dmax of 26 to 50%.

Compound `Cc1ncsc1-c1ccc(CNC(=O)[C@@H]2C[C@@H](O)CN2C(=O)[C@@H](NC(=O)c2ccc(OCCOCCCOc3ccc(N4C(=S)N(c5ccc(C#N)c(C(F)(F)F)c5)C(=O)C4(C)C)cc3)cc2)C(C)(C)C)cc1` [Example 274] returned a DC50 of 51 to 500 nM and a Dmax of 26 to 50%.

In turn, `Cc1ncsc1-c1ccc(CNC(=O)[C@@H]2C[C@@H](O)CN2C(=O)[C@@H](NC(=O)c2ccccc2OCCCOc2ccc(N3C(=S)N(c4ccc(C#N)c(C(F)(F)F)c4)C(=O)C3(C)C)cc2)C(C)(C)C)cc1` [Example 275] returned a DC50 of over 501 nM and a Dmax of under 25%.

`Cc1ncsc1-c1ccc(CNC(=O)[C@@H]2C[C@@H](O)CN2C(=O)[C@@H](NC(=O)c2ccccc2OCCCCOc2ccc(N3C(=S)N(c4ccc(C#N)c(C(F)(F)F)c4)C(=O)C3(C)C)cc2)C(C)(C)C)cc1` [Example 276]: the DC50 was over 501 nM and the Dmax was under 25%.

With `Cc1ncsc1-c1ccc(CNC(=O)[C@@H]2C[C@@H](O)CN2C(=O)[C@@H](NC(=O)c2cccc(OCCCOc3ccc(N4C(=S)N(c5ccc(C#N)c(C(F)(F)F)c5)C(=O)C4(C)C)cc3)c2)C(C)(C)C)cc1` [Example 277], the DC50 is 51 to 500 nM and the maximal degradation (Dmax) was under 25%.

`Cc1ncsc1-c1ccc(CNC(=O)[C@@H]2C[C@@H](O)CN2C(=O)[C@H](C(C)C)N2Cc3ccccc3C2=O)c(OCCCCOCCCOc2ccc(N3C(=S)N(c4ccc(C#N)c(C(F)(F)F)c4)C(=O)C3(C)C)cc2)c1` [Example 279]: the 50% degradation concentration (DC50) was over 501 nM and the Dmax was 51 to 70%.

Compound `CC[C@H](NC(C)=O)C(=O)N1C[C@H](O)C[C@H]1C(=O)NCc1ccc(-c2scnc2C)cc1OCCOCCOCCOc1ccc(N2C(=S)N(c3ccc(C#N)c(C(F)(F)F)c3)C(=O)C2(C)C)cc1` [Example 280] came in with a DC50 of over 501 nM and a Dmax of 26 to 50%.

For `CC(=O)N[C@H](C(=O)N1C[C@H](O)C[C@H]1C(=O)NCc1ccc(-c2scnc2C)cc1OCCOCCOCCOc1ccc(N2C(=S)N(c3ccc(C#N)c(C(F)(F)F)c3)C(=O)C2(C)C)cc1)C(C)C` [Example 281], the 50% degradation concentration (DC50) was over 501 nM and the Dmax fell in the range of 51 to 70%.

Compound `Cc1ncsc1-c1ccc(CNC(=O)[C@@H]2C[C@@H](O)CN2C(=O)[C@@H](NC(=O)c2ccccc2OCCOCCOc2ccc(N3C(=S)N(c4ccc(C#N)c(C(F)(F)F)c4)C(=O)C3(C)C)cc2)C(C)(C)C)cc1` [Example 282] came in with a DC50 of 51 to 500 nM and a Dmax of 51 to 70%.

As for `Cc1ncsc1-c1ccc(CNC(=O)[C@@H]2C[C@@H](O)CN2C(=O)[C@@H](NC(=O)c2cccc(OCCOCCOc3ccc(N4C(=S)N(c5ccc(C#N)c(C(F)(F)F)c5)C(=O)C4(C)C)cc3)c2)C(C)(C)C)cc1` [Example 283], the DC50 lay in the range of 51 to 500 nM and the Dmax was in the range of 51 to 70%.

Take `Cc1ncsc1-c1ccc(CNC(=O)[C@@H]2C[C@@H](O)CN2C(=O)[C@@H](NC(=O)c2ccc(OCCCOc3ccc(-c4ccc(N5C(=S)N(c6ccc(C#N)c(C(F)(F)F)c6)C(=O)C5(C)C)cc4)cc3)cc2)C(C)(C)C)cc1` [Example 284]: the DC50 fell in the range of 51 to 500 nM and the Dmax lay in the range of 26 to 50%.

`Cc1ncsc1-c1ccc(CNC(=O)[C@@H]2C[C@@H](O)CN2C(=O)[C@@H](NC(=O)c2ccc(OCCCCOc3ccc(-c4ccc(N5C(=S)N(c6ccc(C#N)c(C(F)(F)F)c6)C(=O)C5(C)C)cc4)cc3)cc2)C(C)(C)C)cc1` [Example 285]: the half-maximal degradation concentration (DC50) is over 501 nM and the Dmax is under 25%.

`Cc1ncsc1-c1ccc(CNC(=O)[C@@H]2C[C@@H](O)CN2C(=O)[C@@H](NC(=O)c2ccc(OCCOc3ccc(-c4ccc(N5C(=S)N(c6ccc(C#N)c(C(F)(F)F)c6)C(=O)C5(C)C)cc4)cc3)cc2)C(C)(C)C)cc1` [Example 286] had a 50% degradation concentration (DC50) of under 50 nM and a Dmax of 51 to 70%.

On to `Cc1ncsc1-c1ccc(CNC(=O)[C@@H]2C[C@@H](O)CN2C(=O)[C@@H](NC(=O)c2ccc(C3CCN(CCCCOc4ccc(N5C(=S)N(c6ccc(C#N)c(C(F)(F)F)c6)C(=O)C5(C)C)cc4)CC3)cc2)C(C)(C)C)cc1` [Example 287], for which the DC50 is over 501 nM and the Dmax is 51 to 70%.

Regarding `Cc1ncsc1-c1ccc(CNC(=O)[C@@H]2C[C@@H](O)CN2C(=O)[C@@H](NC(=O)c2ccc(C3CCN(CCCOc4ccc(N5C(=S)N(c6ccc(C#N)c(C(F)(F)F)c6)C(=O)C5(C)C)cc4)CC3)cc2)C(C)(C)C)cc1` [Example 289], the DC50 was over 501 nM and the greatest degradation seen (Dmax) lay within 26 to 50%.

In turn, `Cc1ncsc1-c1ccc(CNC(=O)[C@@H]2C[C@@H](O)CN2C(=O)[C@@H](NC(=O)COCCCOC2CCN(C(=O)c3ccc(N4C(=S)N(c5ccc(C#N)c(C(F)(F)F)c5)C(=O)C4(C)C)cc3)CC2)C(C)(C)C)cc1` [Example 290] showed a half-maximal degradation concentration (DC50) of over 501 nM and a Dmax of 51 to 70%.

For the compound `Cc1ncsc1-c1ccc(CNC(=O)[C@@H]2C[C@@H](O)CN2C(=O)[C@@H](NC(=O)c2ccc(OCCOC3CCN(C(=O)c4ccc(N5C(=S)N(c6ccc(C#N)c(C(F)(F)F)c6)C(=O)C5(C)C)cc4)CC3)cc2)C(C)(C)C)cc1` [Example 291], the DC50 was over 501 nM and the Dmax was under 25%.

For the origin of these results see US11427548B2 (Arvinas Operations, Inc., priority 2015, dated 2022).
